# Source: US6858591B2, “Antibiotic AA 896 analogs” (Wyeth Holdings Corporation, priority 2001, dated 2005)
# Read-outs that look alike come from different tables or passages of the source.
# Columns and labels:
# Assay in all cases: In vitro MIC, broth dilution
# Type in all cases: cell-based
# C. albicans GC 3066 = details: Candida albicans, GC3066
# K. pneumoniae GC 4534 = details: Klebsiella pneumoniae, GC4534
# P. aeruginosa GC 2214 = details: Pseudomonas aeruginosa, GC2214
# E. cloacae GC 3783 = details: Enterobacter cloacae, GC3783
# P. aeruginosa GC 4532 = details: Pseudomonas aeruginosa, GC4532
# E. coli GC 3226 = details: Escherichia coli, GC3226
# E. coli GC 4560 = details: Escherichia coli, GC4560
# E. coli GC 2203 = details: Escherichia coli, GC2203
# CNS GC 4547 = test system: CNS GC 4547
# Method: (§1) The minimum inhibitory concentration (MIC), the lowest concentration of the antibiotic which inhibits growth of the test organism, is determined by the broth dilution method using Muller-Hinton II […] (Baltimore Biological Laboratories) following the recommendations of National Committee for Clinical Laboratory Standards. [Reference for the Methods for dilution antimicrobial susceptibility tests for bacteria that grow aerobically: National Committee for Clinical Laboratory Standards, 1997. Approved standard M7-A National Committee for Clinical Laboratory Standards, Wayne, Pa.] An inoculum level of 5×10^5 CFU/ml, and a range of antibiotic concentrations (64-0.06 μg/ml) is used. The MIC is determined after the microtiter plates are incubated for 18 hours at 35° C. in an ambient air incubator. The test organisms comprise a spectrum of gram-positive bacteria including Staphylococcus sp., Streptococcus sp. and Enterococcus sp. These organisms include recent clinical isolates that are resistant to methicillin, penicillin and vancomycin.
# CNS GC 4538 = test system: CNS GC 4538
# Method: as §1
# E. faecalis GC 2242 = details: Enterococcus faecalis, GC2242
# Method: as §1
# S. aureus GC 2216 = details: Staphylococcus aureus, GC2216
# Method: as §1
# E. faecalis GC 842 = details: Enterococcus faecalis, GC842
# Method: as §1
# CNS GC 4537 = test system: CNS GC 4537
# Method: as §1
# E. faecalis GC 4555 = details: Enterococcus faecalis, GC4555
# Method: as §1
# S. aureus GC 4536 = details: Staphylococcus aureus, GC4536
# Method: as §1
# S. aureus GC 1131 = details: Staphylococcus aureus, GC1131
# Method: as §1
# S. marcescens GC 4077 = details: Serratia marcescens, GC4077
# E. coli GC 4559 = details: Escherichia coli, GC4559
# M. morganii GC 4531 = details: Morganella morganii, GC4531
# [1] = C. albicans GC 3066, read-out: MIC
# [2] = K. pneumoniae GC 4534, read-out: MIC
# [3] = P. aeruginosa GC 2214, read-out: MIC
# [4] = E. cloacae GC 3783, read-out: MIC
# [5] = P. aeruginosa GC 4532, read-out: MIC
# [6] = E. faecalis GC 2242, read-out: MIC
# [7] = S. aureus GC 2216, read-out: MIC
# [8] = E. faecalis GC 842, read-out: MIC
# [9] = E. faecalis GC 4555, read-out: MIC
# [10] = S. aureus GC 4536, read-out: MIC
# [11] = S. aureus GC 1131, read-out: MIC
# [12] = S. marcescens GC 4077, read-out: MIC
# [13] = M. morganii GC 4531, read-out: MIC
SMILES,MIC (C. albicans GC 3066; [1]) [µg/mL],MIC (K. pneumoniae GC 4534; [2]) [µg/mL],MIC (P. aeruginosa GC 2214; [3]) [µg/mL],MIC (E. cloacae GC 3783; [4]) [µg/mL],MIC (P. aeruginosa GC 4532; [5]) [µg/mL],"MIC (E. coli GC 3226; E. coli GC 3226, read-out: MIC) [µg/mL]","MIC (E. coli GC 4560; E. coli GC 4560, read-out: MIC) [µg/mL]","MIC (E. coli GC 2203; E. coli GC 2203, read-out: MIC) [µg/mL]","MIC (CNS GC 4547; CNS GC 4547, read-out: MIC) [µg/mL]","MIC (CNS GC 4538; CNS GC 4538, read-out: MIC) [µg/mL]",MIC (E. faecalis GC 2242; [6]) [µg/mL],MIC (S. aureus GC 2216; [7]) [µg/mL],MIC (E. faecalis GC 842; [8]) [µg/mL],"MIC (CNS GC 4537; CNS GC 4537, read-out: MIC) [µg/mL]",MIC (E. faecalis GC 4555; [9]) [µg/mL],MIC (S. aureus GC 4536; [10]) [µg/mL],MIC (S. aureus GC 1131; [11]) [µg/mL],MIC (S. marcescens GC 4077; [12]) [µg/mL],"MIC (E. coli GC 4559; E. coli GC 4559, read-out: MIC) [µg/mL]",MIC (M. morganii GC 4531; [13]) [µg/mL],other results
"COc1ccc(Cn2c(=O)ccn([C@@H]3OC([C@H](O)[C@H](NCCCNC(=O)[C@H](CC(C)C)NC(=O)OCc4ccccc4)C(=O)OC(C)(C)C)[C@@H](O[Si](C)(C)C(C)(C)C)[C@H]3O[Si](C)(C)C(C)(C)C)c2=O)cc1 (stereo partly drawn) [Example 4, tert-Butyl (5S,12S)-12-[(R)-[(3R,4R,5R)-3,4-bis{[tert-butyl(dimethyl)silyl]oxy}-5-(3-(4-methoxybenzyl)-2,4-dioxo-3,4-dihydro-1(2H)-pyrimidinyl)tetrahydro-2-furanyl](hydroxy)methyl]-5-isobutyl-3,6-dioxo-1-phenyl-2-oxa-4,7,11-triazatridecan-13-oate]",> 128,> 128,128,> 128,> 128,> 128,> 128,> 128,> 128,> 128,128,> 128,> 128,> 128,> 128,> 128,> 128,> 128,> 128,> 128,–
"COc1ccc(Cn2c(=O)ccn([C@@H]3OC([C@H](O)[C@H](NCCCNC(=O)[C@@H](N)CC(C)C)C(=O)OC(C)(C)C)[C@@H](O[Si](C)(C)C(C)(C)C)[C@H]3O[Si](C)(C)C(C)(C)C)c2=O)cc1 (stereo partly drawn) [Example 5, tert-Butyl (2S,3R)-2-[(3-{[(2S)-2-amino-4-methylpentanoyl]amino}propyl)amino]-3-[(3R,4R,5R)-3,4-bis{[tert-butyl(dimethyl)silyl]oxy}-5-(3-(4-methoxybenzyl)-2,4-dioxo-3,4-dihydro-1(2H)-pyrimidinyl)tetrahydro-2-furanyl]-3-hydroxypropanoate]",> 128,> 128,> 128,> 128,> 128,> 128,> 128,> 128,64,8,4,8,16,4,8,16,32,> 128,> 128,> 128,–
"CC(C)C[C@H](NC(=O)OCc1ccccc1)C(=O)NCCCN[C@H](C(=O)OC(C)(C)C)[C@@H](O)C1O[C@@H](n2ccc(=O)[nH]c2=O)[C@H](O[Si](C)(C)C(C)(C)C)[C@@H]1O[Si](C)(C)C(C)(C)C (stereo partly drawn) [Example 6, tert-Butyl (5S,12S)-12-[(R)-[(3R,4R,5R)-3,4-bis{[tert-butyl(dimethyl)silyl]oxy}-5-(2,4-dioxo-3,4-dihydro-1(2H)-pyrimidinyl)tetrahydro-2-furanyl](hydroxy)methyl]-5-isobutyl-3,6-dioxo-1-phenyl-2-oxa-4,7,11-triazatridecan-13-oate]",> 128,> 128,128,> 128,128,> 128,128,> 128,> 128,> 128,64,> 128,> 128,> 128,> 128,> 128,> 128,> 128,> 128,128,–
"CC(C)C[C@H](N)C(=O)NCCCN[C@H](C(=O)OC(C)(C)C)[C@@H](O)C1O[C@@H](n2ccc(=O)[nH]c2=O)[C@H](O[Si](C)(C)C(C)(C)C)[C@@H]1O[Si](C)(C)C(C)(C)C (stereo partly drawn) [Example 7, tert-Butyl (2S,3R)-2-[(3-{[(2S)-2-amino-4-methylpentanoyl]amino}propyl)amino]-3-[(3R,4R,5R)-3,4-bis{[tert-butyl(dimethyl)silyl]oxy}-5-(2,4-dioxo-3,4-dihydro-1(2H)-pyrimidinyl)tetrahydro-2-furanyl]-3-hydroxypropanoate]",32,128,128,128,128,> 128,32,> 128,2,2,2,2,2,1,2,1,1,128,> 128,128,–
"COc1ccc(Cn2c(=O)ccn([C@@H]3OC([C@@H](O)[C@H](NCCCNC(=O)[C@@H](NC(=O)OCc4ccccc4)[C@H](C)O)C(=O)OC(C)(C)C)[C@@H](O[Si](C)(C)C(C)(C)C)[C@H]3O[Si](C)(C)C(C)(C)C)c2=O)cc1 (stereo partly drawn) [Example 8, tert-Butyl (5S,12S)-12-[(S)-[(3R,4R,5R)-3,4-bis{[tert-butyl(dimethyl)silyl]oxy}-5-(3-(4-methoxybenzyl)-2,4-dioxo-3,4-dihydro-1(2H)-pyrimidinyl)tetrahydro-2-furanyl](hydroxy)methyl]-5-[(1S)-1-hydroxyethyl]-3,6-dioxo-1-phenyl-2-oxa-4,7,11-triazatridecan-13-oate]",–,–,–,–,–,–,–,–,–,–,–,–,–,–,–,–,–,–,–,–,MIC (C. albicans GC 3066): 32 µg/mL; MIC (K. pneumoniae GC 4534): 64 µg/mL; MIC (P. aeruginosa GC 2214): 64 µg/mL; MIC (E. cloacae GC 3783): 64 µg/mL; MIC (P. aeruginosa GC 4532): 64 µg/mL; MIC (E. coli GC 3226): > 128 µg/mL; MIC (E. coli GC 4560): 64 µg/mL; MIC (E. coli GC 2203): 64 µg/mL; MIC (CNS GC 4547): 128 µg/mL; MIC (CNS GC 4538): 128 µg/mL; MIC (E. faecalis GC 2242): 64 µg/mL; MIC (S. aureus GC 2216): 128 µg/mL; MIC (E. faecalis GC 842): 64 µg/mL; MIC (CNS GC 4537): 128 µg/mL; MIC (E. faecalis GC 4555): 64 µg/mL; MIC (S. aureus GC 4536): 128 µg/mL; MIC (S. aureus GC 1131): 128 µg/mL; MIC (S. marcescens GC 4077): 64 µg/mL; MIC (E. coli GC 4559): > 128 µg/mL; MIC (M. morganii GC 4531): 64 µg/mL
"COc1ccc(Cn2c(=O)ccn([C@@H]3OC([C@@H](O)[C@H](NCCCNC(=O)[C@@H](N)[C@H](C)O)C(=O)OC(C)(C)C)[C@@H](O[Si](C)(C)C(C)(C)C)[C@H]3O[Si](C)(C)C(C)(C)C)c2=O)cc1 (stereo partly drawn) [Example 9, tert-Butyl (2S,3S)-2-[(3-{[(2S,3S)-2-amino-3-hydroxybutanoyl]amino}propyl)amino]-3-[(3R,4R,5R)-3,4-bis{[tert-butyl(dimethyl)silyl]oxy}-5-(3-(4-methoxybenzyl)-2,4-dioxo-3,4-dihydro-1(2H)-pyrimidinyl)tetrahydro-2-furanyl]-3-hydroxypropanoate]",128,> 128,128,> 128,128,> 128,128,> 128,8,128,128,128,> 128,128,128,128,128,> 128,> 128,> 128,–
